Source: patent US11970469B2 (Oxford University Innovation Limited, priority 2018, dated 2024)

Assays:
[1] = test system: DLD1 cells (ATCC CCL-221); experiment: Cell viability assay, DLD-1 (CellTiter-Glo); type: cell-based; conditions: DLD-1 cells; for effect on DLD-1 viability over the range of concentrations: 72 hour, 5, 10, 15, 20 μM (FIG. 1); for IC50: Homo sapiens, 72 h, dose response 5, 10, 15, 20 μM
Protocol: DLD1 cells (ATCC CCL-221) are cultured in RPMI-1640 medium plus 10% foetal calf serum and 2 mM L-glutamine at 37° C. 5% CO2. Cells are plated onto white clear bottom 96-well plates (5000 cells/well in 200 μl media) and left to adhere overnight at 37° C., 5% CO2. Next day, test compound (1 μl at 200× concentration in 100% DMSO) is added to give final test compound concentration 1× in 0.5% DMSO. After 72 h of incubation at 37° C. 5% CO2, 20 μl CellTiter-Glo reagent (Promega G7572) is added into each well. Plates are incubated at room temperature with shaking for 30 min and then luminescence is read using a PheraStar plate reader. The concentration of compounds that decrease cell viability by 50% is calculated from dose response curves generated using Dotmatics data analysis software Results

[2] = test system: RASG12D/CRAF FL; experiment: BRET2 cell assay with BRET-based RAS biosensor (RAS-effector) in HEK293T; conditions: 10 uM compound, 20 hours
Protocol: 650,000 HEK293T were seeded in each well of a 6 well plate. 24 hours later, cells were transfected with an appropriated BRET-based RAS biosensor (i.e. RAS-effector) using Lipofectamine 2000 transfection reagent (Thermo-Fisher). Cells were detached 24 hours later and washed with PBS and seeded in a white 96 well plate (clear bottom, PerkinElmer, cat #6005181) in OptiMEM no phenol red medium (Life Technologies) complemented with 4% FBS. Cells were left for 4 hours at 37° C. before adding compounds. Stock compounds were held at 10 mM in 100% DMSO and diluted in OptiMEM no red phenol+4% FBS to reach 10× the final concentration (2% DMSO for each concentration). The final concentrations in the cells were 0, 5, 10 and 20 μM (therefore the intermediate 10× concentrations were 0, 50, 100 and 200 μM. 10 μL of 10× compounds were added in each well of the 96 well plate to 0, 5, 10 and 20 μM final concentrations (with final 0.2% DMSO each). Quadruplicates were performed for each point. Cells were left for an additional 20 hours at 37° C. before the BRET2 signal reading directly after addition of Coelenterazine 400a substrate (10 μM final) to cells (Cayman Chemicals, cat #16157). BRET2 reading was carried out on an Envision instrument (2103 Multilabel Reader, PerkinElmer) with the BRET2 Dual Emission optical module (515 nm±30 and 410 nm±80; PerkinElmer).

[3] = target: GST-human KRas166 (G12V) GPPNHP (Homo sapiens, UniProt P01116, G12V); experiment: KRas small-molecule screening by SPR (BIACORE T200); type: binding; design: made in house; host or cells: E. coli C41(DE3); key: SPR response units (RU); conditions: compounds at final concentration of 100 uM; immobilised KRAS166 (G12V) GPPNHP; no unit printed (method speaks of response units)
Protocol: For SPR assays pGEX-KRAS(G12V) plasmid was transformed into E. coli C41(DE3). Bacterial cells were cultured at 37° C. to an OD600 of 0.6 and induced with IPTG (final 0.1 mM) at 18° C. over night. The GST fusion proteins were extracted from bacteria pellets after cell disruption in 140 mM NaCl, 2.7 mM KCl, 10 mM NaH2PO4, 1.8 mM KH2PO4, 1 mM EDTA, 2 mM MgCl2 pH 7.4 and purified by glutathione-sepharose column chromatography (GE Healthcare), eluting with 50 mM Tris-HCl pH8.0, 10 mM reduced glutathione, 1 mM DTT, 2 mM MgCl2. The eluted proteins were dialysed against 50 mM Tris-HCl pH8.0, 1 mM DTT, 2 mM MgCl2 and concentrated to 10 mg/ml using a Biomax-30 ULTRAFREE-15 centrifugal filter device (Millipore). Purified KRAS protein was loaded with GPPNHP as described elsewhere (Pacold et al., 2000). Loaded protein was then purified by gel filtration on a HiLoad Superdex-75 HR column (GE Healthcare) in 1×PBS pH7.4, 5 mM MgCl2 and concentrated for storage. Protocol for KRas small-molecule screening and affinity measurements by SPR
To a previously immobilized CM5 chip (GE Healthcare BR-1005-30) with anti GST antibody via amine coupling method, GST in channel 1 and GST-human KRas166 (G12V) GPPNHP in channel 2 were immobilised. GST was immobilised between 2,000 and 5,000 Response units. KRAS166 (G12V) was immobilized between 10,000 to 15,000 Response Units.
In a 96 well plate, compounds were diluted in […], 5 mM MgCl2 and 5% DMSO Buffer to a final concentration of 100 uM. DCAI was used as positive control. Experiment also included a solvent correction curve for 5% DMSO. Screening and evaluation of the protein immobilization and the compounds screening was done accordingly to the BIACORE T200 control and evaluation software.
Calculations for how many response units are required for a 1:1 ratio of compound/protein interaction are shown below. • Protein immobilisation: 10,000 RU; average fragment 300 Da in size. Rmax=(MWA/MWL)×RL×SM • MWA is the molecular weight of the analyte in Da • MWL is the molecular weight of the ligand in Da • RL is the immobilization level in RU • SM is the molar stoichiometry (assume 1:1) • Rmax=300/47,500×10,000×1 • Rmax=63 RU. BRET2 Cell Assay

Row | Compound | effect on DLD-1 viability over the range of concentrations [1] | IC50 [1] | BRET RASG12D/CRAF FL % Inhibition (10 uM) [2] | SPR [3]
1 | O=C(NCC1COc2ccccc2O1)c1ccco1 (centres unmarked) [Abd-2, reference compound] | does not affect DLD-1 viability | – | – | –
2 | COc1nc(-c2cccc3c2OCCO3)ccc1Nc1ccc(CN(C)C)cc1 [Abd-7, reference compound] | – | 8.2 µM | – | –
3 | COc1cccc(-c2ccc(Nc3ccc(CN(C)C)cc3)cc2)c1 [Example 1, N-(4-((dimethylamino)methyl)phenyl)-3′-methoxy-[1,1′-biphenyl]-4-amine] | – | 5.3 µM | 24% | 230
4 | COc1cccc(-c2ccc(Nc3ccc(CN(C)C)cc3)c(OC)c2)c1 [Example 2, N-(4-((dimethylamino)methyl)phenyl)-3,3′-dimethoxy-[1,1′-biphenyl]-4-amine] | – | 7.2 µM | 18% | 233
5 | COc1cccc(-c2ccc(Nc3ccc(CN(C)C)cc3)c(OC)c2F)c1 [Example 3, N-(4-((dimethylamino)methyl)phenyl)-2-fluoro-3,3′-dimethoxy-[1,1′-biphenyl]-4-amine] | – | 4.5 µM | 26% | 177
6 | COc1cc(-c2ccc(Nc3ccc(CN(C)C)cc3)cc2)ccc1F [Example 4, N-(4-((dimethylamino)methyl)phenyl)-4′-fluoro-3′-methoxy-[1,1′-biphenyl]-4-amine] | – | – | 24% | 80
7 | COc1cc(-c2ccc(Nc3ccc(CN(C)C)cc3)cc2)cc(F)c1F [Example 5, N-(4-((dimethylamino)methyl)phenyl)-3′,4′-difluoro-5′-methoxy-[1,1′-biphenyl]-4-amine] | – | – | 33% | 127
8 | COc1cc(F)cc(-c2ccc(Nc3ccc(CN(C)C)cc3)cc2)c1 [Example 6, N-(4-((dimethylamino)methyl)phenyl)-3′-fluoro-5′-methoxy-[1,1′-biphenyl]-4-amine] | – | – | 22% | 245
9 | COc1cc(C)cc(-c2ccc(Nc3ccc(CN(C)C)cc3)cc2)c1 [Example 7, N-(4-((dimethylamino)methyl)phenyl)-3′-methoxy-5′-methyl-[1,1′-biphenyl]-4-amine] | – | – | 6% | 264
10 | COc1cccc(-c2ccc(Nc3cc(C)cc(C)c3)c(OC)c2F)c1 [Example 8, N-(3,5-dimethylphenyl)-2-fluoro-3,3′-dimethoxy-[1,1′-biphenyl]-4-amine] | – | – | 0% | 30
11 | COc1cccc(-c2ccc(Nc3cc(C)cc(C)c3)cc2)c1 [Example 9, N-(3,5-dimethylphenyl)-3′-methoxy-[1,1′-biphenyl]-4-amine] | – | – | 2% | 28
12 | COc1cccc(-c2ccc(Nc3cc(C(=O)N(C)C)ccc3C)cc2)c1 [Example 10, 3-((3′-methoxy-[1,1′-biphenyl]-4-yl)amino)-N,N,4-trimethylbenzamide] | – | – | 0% | 28
13 | COc1cccc(-c2ccc(Nc3cc(CN(C)C)ccc3C)cc2)c1 [Example 11, N-(5-((dimethylamino)methyl)-2-methylphenyl)-3′-methoxy-[1,1′-biphenyl]-4-amine] | – | – | 1% | 69
14 | COc1cccc(-c2ccc(Nc3cccc(CN4CC(C)OC(C)C4)c3)cc2)c1 (centres unmarked) [Example 12, N-(3-((2,6-dimethylmorpholino)methyl)phenyl)-3′-methoxy-[1,1′-biphenyl]-4-amine] | – | – | 0% | 55
15 | COc1cccc(-c2ccc(Nc3ccc(CN(C)C)cc3)c(OC)n2)c1 [Example 14, N-(4-((dimethylamino)methyl)phenyl)-2-methoxy-6-(3-methoxyphenyl)pyridin-3-amine] | – | – | 42% | 152
16 | COc1cccc(-c2ccc(Nc3cccc(CN(C)C)c3)c(OC)n2)c1 [Example 15, N-(3-((dimethylamino)methyl)phenyl)-2-methoxy-6-(3-methoxyphenyl)pyridin-3-amine] | – | – | 35% | 84
17 | COc1cccc(-c2ccc(Nc3ccc(CN(C)C)cc3)cn2)c1 [Example 16, N-(4-((dimethylamino)methyl)phenyl)-6-(3-methoxyphenyl)pyridin-3-amine] | – | – | 0% | 209
18 | COc1cccc(-c2ccc(Nc3cccc(C(=O)NCC4CCNCC4)c3)cc2)c1 [Example 17, 3-((3′-methoxy-[1,1′-biphenyl]-4-yl)amino)-N-(piperidin-4-ylmethyl)benzamide] | – | – | – | 396
19 | COc1cc(-c2ccc(Nc3ccc(CN(C)C)cc3)cc2)ccc1C [Example 18, N-(4-((dimethylamino)methyl)phenyl)-3′-methoxy-4′-methyl-[1,1′-biphenyl]-4-amine] | – | – | 13% | 119
20 | COc1cccc(-c2ccc(Nc3ccc(C(=O)NCC4CCNCC4)cc3)cc2)c1 [Example 20, 4-((3′-methoxy-[1,1′-biphenyl]-4-yl)amino)-N-(piperidin-4-ylmethyl)benzamide] | – | – | – | 1426
21 | COc1cccc(-c2ccc(Nc3ccc(C(=O)NCC4CCN(C)CC4)cc3)cc2)c1 [Example 21, 4-((3′-methoxy-[1,1′-biphenyl]-4-yl)amino)-N-((1-methylpiperidin-4-yl)methyl)benzamide] | – | – | – | 1583
22 | COc1cccc(-c2ccc(Nc3ccc(C(=O)NCC4CCN(Cc5ccccc5)CC4)cc3)cc2)c1 [Example 23, N-((1-benzylpiperidin-4-yl)methyl)-4-((3′-methoxy-[1,1′-biphenyl]-4-yl)amino)benzamide] | – | – | – | 99
23 | COc1cccc(-c2cccc(CC3(C(=O)NCCn4ccnc4)CCOCC3)c2)c1 [PPIN-2, reference compound] | does not affect DLD-1 viability | – | – | –
24 | N-(3-((2,6-dimethylmorpholino)methyl)phenyl)-3′-methoxy-[1,1′-biphenyl]-4-amine [Example 13] | – | – | 9% | 43
